Data reported in patent publication US20010044463A1, “Methods for controlling gram negative bacteria in mammals” (priority 1997, published 2001).
Values after ≈ are worked out from the molar mass of the structure shown.

Tests used:
Staph ATCC 14775 = experiment: Blood agar plate growth inhibition, control organism; assay type: cell-based
H. pylori ATCC 43504 = experiment: Minimum Inhibitory Concentration (MIC) blood agar plate growth inhibition; assay type: cell-based, Helicobacter pylori
How it was run: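 Compound dilutions mixed into blood agar base (1.5% agar) and poured as plates; 10^6 H. pylori organisms spread per plate and grown microaerophilically for 3 days unless specified. Inhibition scored by colony count: ±=0-20, +=20-50, ++=50-200, +++=200+ colonies.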

[1] = tested on: H. pylori (urease positive) ATCC Number 51652; experiment: as above; assay type: cell-based, Helicobacter pylori; conditions: Table VIII
[2] = tested on: H. pylori (urease negative) (Wild strain of ATCC 43504); experiment: as above; assay type: cell-based, Helicobacter pylori; conditions: Table III

## CC[C@@]1([C@@H]2O[C@@H]([C@H]3O[C@@](O)(CO)[C@H](C)C[C@@H]3C)C[C@@H]2C)CC[C@H]([C@]2(C)CC[C@]3(C[C@H](O)[C@@H](C)[C@@H]([C@@H](C)[C@@H](OC)[C@H](C)C(=O)O)O3)O2)O1 [Monensin, monensin]
Staph ATCC 14775; Table XIV, Non-microaerophilic conditions, final drug concentration 0.1 ng/ml
  growth (amount of colonies present within the petri plate): (+++) (+++=200+ colonies)
Staph ATCC 14775; Table XIV, Non-microaerophilic conditions, final drug concentration 1 ng/ml
  growth (amount of colonies present within the petri plate): (+++) (+++=200+ colonies)
Staph ATCC 14775; Table XIV, Non-microaerophilic conditions, final drug concentration 10 ng/ml
  growth (amount of colonies present within the petri plate): (+++) (+++=200+ colonies)
Staph ATCC 14775; Table XIV, Non-microaerophilic conditions, final drug concentration 100 ng/ml
  growth (amount of colonies present within the petri plate): (+++) (+++=200+ colonies)
Staph ATCC 14775; Table XIV, Non-microaerophilic conditions, final drug concentration 1 μg/ml
  growth (amount of colonies present within the petri plate): (+++***) (+++=200+ colonies)
Staph ATCC 14775; Table XIV, Non-microaerophilic conditions, final drug concentration 10 μg/ml
  growth (amount of colonies present within the petri plate): No growth
Staph ATCC 14775; Table XVI, Non-aerophilic conditions, final drug concentration 0.098 μg/ml
  growth (amount of colonies present within the petri plate): (+++) (+++=200+ colonies)
Staph ATCC 14775; Table XVI, Non-aerophilic conditions, final drug concentration 0.195 μg/ml
  growth (amount of colonies present within the petri plate): (+++) (+++=200+ colonies)
Staph ATCC 14775; Table XVI, Non-aerophilic conditions, final drug concentration 0.39 μg/ml
  growth (amount of colonies present within the petri plate): (+++) (+++=200+ colonies)
Staph ATCC 14775; Table XVI, Non-aerophilic conditions, final drug concentration 0.78 μg/ml
  growth (amount of colonies present within the petri plate): (++) (++=50-200 colonies)
Staph ATCC 14775; Table XVI, Non-aerophilic conditions, final drug concentration 1.56 μg/ml
  growth (amount of colonies present within the petri plate): (+)^2 (+=20-50 colonies)
Staph ATCC 14775; Table XVI, Non-aerophilic conditions, final drug concentration 3.125 μg/ml
  growth (amount of colonies present within the petri plate): (+)^2 (+=20-50 colonies)
Staph ATCC 14775; Table XVI, Non-aerophilic conditions, final drug concentration 6.25 μg/ml
  growth (amount of colonies present within the petri plate): (+)^2 (+=20-50 colonies)
Staph ATCC 14775; Table XVI, Non-aerophilic conditions, final drug concentration 12.5 μg/ml
  growth (amount of colonies present within the petri plate): (±)^1 (±=0-20 colonies)
Staph ATCC 14775; Table XVI, Non-aerophilic conditions, final drug concentration 25 μg/ml
  growth (amount of colonies present within the petri plate): (±)^1 (±=0-20 colonies)
Staph ATCC 14775; Table XVI, Non-aerophilic conditions, final drug concentration 50 μg/ml
  growth (amount of colonies present within the petri plate): No growth
Staph ATCC 14775; Table XVI, Non-aerophilic conditions, final drug concentration 100 μg/ml
  growth (amount of colonies present within the petri plate): No growth
H. pylori ATCC 43504; Helicobacter pylori, ATCC43504
  MIC: 0.39 µg/mL (≈ 0.581 µM)
H. pylori ATCC 43504; Table I, final drug concentration 0.1 ng/ml
  growth (amount of colonies present within the petri plate): (+++) (+++=200+ colonies)
H. pylori ATCC 43504; Table I, final drug concentration 1 ng/ml
  growth (amount of colonies present within the petri plate): (+) (+=20-50 colonies)
H. pylori ATCC 43504; Table I, final drug concentration 10 ng/ml
  growth (amount of colonies present within the petri plate): (+) (+=20-50 colonies)
H. pylori ATCC 43504; Table I, final drug concentration 100 ng/ml
  growth (amount of colonies present within the petri plate): No growth
H. pylori ATCC 43504; Table I, final drug concentration 1 μg/ml
  growth (amount of colonies present within the petri plate): No growth
H. pylori ATCC 43504; Table I, final drug concentration 10 μg/ml
  growth (amount of colonies present within the petri plate): No growth
H. pylori ATCC 43504; Table II, urease positive, final drug concentration 1 ng/ml
  growth (amount of colonies present within the petri plate): (+++) (+++=200+ colonies)
H. pylori ATCC 43504; Table II, urease positive, final drug concentration 100 ng/ml
  growth (amount of colonies present within the petri plate): (+++) (+++=200+ colonies)
H. pylori ATCC 43504; Table II, urease positive, final drug concentration 10 μg/ml
  growth (amount of colonies present within the petri plate): No growth
H. pylori ATCC 43504; Table II, urease positive, final drug concentration 0.1 nglml
  growth (amount of colonies present within the petri plate): (+++) (+++=200+ colonies)
H. pylori ATCC 43504; Table IV, urease positive, final drug concentration 0.1 ng/ml
  growth (amount of colonies present within the petri plate): (+++) (+++=200+ colonies)
H. pylori ATCC 43504; Table IV, urease positive, final drug concentration 1 ng/ml
  growth (amount of colonies present within the petri plate): (+++) (+++=200+ colonies)
H. pylori ATCC 43504; Table IV, urease positive, final drug concentration 10 ng/ml
  growth (amount of colonies present within the petri plate): (+++) (+++=200+ colonies)
H. pylori ATCC 43504; Table IV, urease positive, final drug concentration 100 ng/ml
  growth (amount of colonies present within the petri plate): (+++) (+++=200+ colonies)
H. pylori ATCC 43504; Table IV, urease positive, final drug concentration 1 μg/ml
  growth (amount of colonies present within the petri plate): No growth
H. pylori ATCC 43504; Table IV, urease positive, final drug concentration 10 μg/ml
  growth (amount of colonies present within the petri plate): No growth
H. pylori ATCC 43504; Table V, in the presence of 10 mM urea, final drug concentration 0.1 ng/ml, Nigericin assay done in duplicate
  growth (amount of colonies present within the petri plate): (+++) (+++=200+ colonies)
H. pylori ATCC 43504; Table V, in the presence of 10 mM urea, final drug concentration 1 ng/ml, Nigericin assay done in duplicate
  growth (amount of colonies present within the petri plate): (+++) (+++=200+ colonies)
H. pylori ATCC 43504; Table V, in the presence of 10 mM urea, final drug concentration 10 ng/ml, Nigericin assay done in duplicate
  growth (amount of colonies present within the petri plate): (+++) (+++=200+ colonies)
H. pylori ATCC 43504; Table V, in the presence of 10 mM urea, final drug concentration 100 ng/ml, Nigericin assay done in duplicate
  growth (amount of colonies present within the petri plate): (+++) (+++=200+ colonies)
H. pylori ATCC 43504; Table V, in the presence of 10 mM urea, final drug concentration 1 μg/ml, Nigericin assay done in duplicate
  growth (amount of colonies present within the petri plate): No growth
H. pylori ATCC 43504; Table V, in the presence of 10 mM urea, final drug concentration 10 μg/ml, Nigericin assay done in duplicate
  growth (amount of colonies present within the petri plate): No growth
H. pylori ATCC 43504; Table VI, in the presence of 2.5 mM urea, final drug concentration 1 ng/ml
  growth (amount of colonies present within the petri plate): (+++) (+++=200+ colonies)
H. pylori ATCC 43504; Table VI, in the presence of 2.5 mM urea, final drug concentration 10 ng/ml
  growth (amount of colonies present within the petri plate): (+++) (+++=200+ colonies)
H. pylori ATCC 43504; Table VI, in the presence of 2.5 mM urea, final drug concentration 1 μg/ml
  growth (amount of colonies present within the petri plate): No growth
H. pylori ATCC 43504; Tables IX-XIII, final drug concentration 0.098 μg/ml
  growth (amount of colonies present within the petri plate): (+++) (+++=200+ colonies)
H. pylori ATCC 43504; Tables IX-XIII, final drug concentration 0.195 μg/ml
  growth (amount of colonies present within the petri plate): (++) (++=50-200 colonies)
H. pylori ATCC 43504; Tables IX-XIII, final drug concentration 0.39 μg/ml
  growth (amount of colonies present within the petri plate): (±) (±=0-20 colonies)
H. pylori ATCC 43504; Tables IX-XIII, final drug concentration 0.78 μg/ml
  growth (amount of colonies present within the petri plate): No growth
H. pylori ATCC 43504; Tables IX-XIII, final drug concentration 6.25 μg/ml
  growth (amount of colonies present within the petri plate): No growth
H. pylori ATCC 43504; Tables IX-XIII, final drug concentration 12.5 μg/ml
  growth (amount of colonies present within the petri plate): No growth
H. pylori ATCC 43504; Tables IX-XIII, final drug concentration 25 μg/ml
  growth (amount of colonies present within the petri plate): No growth
H. pylori ATCC 43504; Tables IX-XIII, final drug concentration 50 μg/ml
  growth (amount of colonies present within the petri plate): No growth
H. pylori ATCC 43504; Tables IX-XIII, final drug concentration 100 μg/ml
  growth (amount of colonies present within the petri plate): No growth
[1]; final drug concentration 0.098 μg/ml
  growth (amount of colonies present within the petri plate): No growth
[1]; final drug concentration 0.195 μg/ml
  growth (amount of colonies present within the petri plate): No growth
[1]; final drug concentration 0.39 μg/ml
  growth (amount of colonies present within the petri plate): No growth
[1]; final drug concentration 0.78 μg/ml
  growth (amount of colonies present within the petri plate): No growth
[1]; final drug concentration 1.56 μg/ml
  growth (amount of colonies present within the petri plate): No growth
[1]; final drug concentration 3.125 μg/ml
  growth (amount of colonies present within the petri plate): No growth
[1]; final drug concentration 6.25 μg/ml
  growth (amount of colonies present within the petri plate): No growth
[1]; final drug concentration 12.5 μg/ml
  growth (amount of colonies present within the petri plate): No growth
[1]; final drug concentration 25 μg/ml
  growth (amount of colonies present within the petri plate): No growth
[1]; final drug concentration 50 μg/ml
  growth (amount of colonies present within the petri plate): No growth
[1]; final drug concentration 100 μg/ml
  growth (amount of colonies present within the petri plate): No growth
[2]; final drug concentration 0.1 ng/ml
  growth (amount of colonies present within the petri plate): (+++) (+++=200+ colonies)
[2]; final drug concentration 1 ng/ml
  growth (amount of colonies present within the petri plate): (+++) (+++=200+ colonies)
[2]; final drug concentration 10 ng/ml
  growth (amount of colonies present within the petri plate): (+++) (+++=200+ colonies)
[2]; final drug concentration 100 ng/ml
  growth (amount of colonies present within the petri plate): (+++) (+++=200+ colonies)
[2]; final drug concentration 1 μg/ml
  growth (amount of colonies present within the petri plate): No growth
[2]; final drug concentration 10 μg/ml
  growth (amount of colonies present within the petri plate): No growth
